# From patent US5869486A, “Fused pyrimidines and pyriazines as pharmaceutical compounds” (Ono Pharmaceutical Co., Ltd., priority 1995, dated 1999)
# Tested on: TXA2 synthetase
# Assay: Inhibitory effect on TXA2 synthetase (TXB2 synthesis in A23187-stimulated whole blood)
# Type: cell-based, Male Wistar rats
# Settings: at 10 μM; rat heparinized whole blood, Ca ionophore A23187, TXB2 by EIA; CH3SO3H salt
# Method: Male Wistar rats were starved overnight. Five hundreds microliter of heparinized (10 U/mL) whole blood was collected from abdominal aorta using polyethylene syringe (needle: 22 or 26 G). The blood freshly drawn from animal was preincubated with 5 μL of test compound at 37° C. Five minutes later, 2.5 μL of 6 mM of Ca ionophore A23187 (final concentration of 30 μM) was added into tube, and incubation mixture was further incubated for 15 min. The reaction was terminated by centrifugation of tubes at 12,000 rpm for 2 min. TXB2 content in the supernatant was determined by EIA as follows.
# One milliliter of 0.5M glycine-HCl buffer (pH 3.2) was added to 100 μL of sample. The samples were mixed well and centrifuged at 1,700 G for 10 min. at 4° C. The extracted supernatant was applied to a SEP-PAK (registered Trade Mark) C18 cartridge (Waters Assoc.). After washing with 10 mL of distilled water followed by 10 mL each of 15% ethanol and petroleum ether, the sample was eluted with 3 mL of ethyl acetate. The ethyl acetate fraction was evaporated to dryness under gentle N2 stream and the residue was dissolved in EIA buffer (final volume of 1 mL) following the addition of 300 μL of 0.01M NaHCO3 --NaOH buffer (pH 10.0). EIA for TXB2 was carried out according to a legend attached to the kit (Chyman Chemical Co., Inc.). Overall recovery of TXB2 in this extraction procedure was 90%. […]
row,SMILES,Inhibitory activity on TXA2 synthetase
1,c1cn(-c2nc3c(c(NCc4ccc5c(c4)OCO5)n2)CSCC3)cn1 [Example 2(7)],63%

# Molecular target: cGMP-PDE (Homo sapiens, UniProt O76074)
# Assay: Inhibitory effect on cGMP-PDE
# Type: biochemical
# Settings: PDE IC isolated from human platelets; substrate 3H-cGMP; tested as 2HCl salt (2, 2(3)), CH3SO3H salt (2(5), 2(7), 5, 6(1)), free base (4, 7, 8)
row,IC50,SMILES
1,0.024 µM,c1cn(-c2nc3c(c(NCc4ccc5c(c4)OCO5)n2)CSCC3)cn1 [Example 2(7)]
2,0.38 µM,O=S1(=O)CCc2nc(-n3ccnc3)nc(NCc3ccccc3)c2C1 [Example 6(1)]
3,0.125 µM,"Cc1csc2nc(-n3ccnc3)nc(NCc3ccccc3)c12 [Example 2, 4-benzylamino-2-(1-imidazolyl)-5-methylthieno[2,3-d]pyrimidine dihydrochloric acid]"
4,0.94 µM,c1ccc(CNc2cc(-c3ccccc3)nn3cnnc23)cc1 [Example 8]
5,0.38 µM,O=C(O)C1CCN(c2nc3c(c(NCc4ccc5c(c4)OCO5)n2)CSCC3)CC1 [Example 4]

# Continued, compound first:
row,SMILES,IC50
1,c1ccc(CNc2nc(-n3ccnc3)nc3c2CSCC3)cc1 [Example 2(5)],0.1 µM
2,[O-][S+]1CCCc2nc(-n3ccnc3)nc(NCc3ccccc3)c21 (stereo not shown) [Example 5],3.2 µM
3,c1ccc(CNc2cc(-c3ccccc3)nc3ncnn23)cc1 [Example 7],3.1 µM
4,c1ccc(CNc2nc(-n3ccnc3)nc3c2SCCC3)cc1 [Example 2(3)],0.1 µM
